“And” between values parts separate entries of the source, which are not always exact repeats. Equal values may be shown once.
Test: PK of compound of Formula (Ia) after single subcutaneous dose of solution formulations in beagle dogs
Type: in vivo
Conditions: individual dogs
Protocol: Formulations containing the compound of Formula (Ia), or a pharmaceutically acceptable salt thereof, were prepared as solutions and optionally administered subcutaneously or intramuscularly to rats, rabbits, and/or dogs.
A solution of about 400 mg/mL of the compound of Formula (Ia) having 17.00 w/w % water, 36.40 w/w % PEG 300, 35.20 w/w % of a sodium salt of a compound of Formula (Ia), 5.00 w/w % ethanol, and 6.40 w/w % poloxamer 188 was prepared. The solution was administered subcutaneously to male beagle dogs at a dose level of about 12 mg/kg and male Wistar Han rats at a dose level of about 50 mg/kg. The pharmacokinetic profiles were determined, and the results for dogs are summarized in Table and Table, while the results for rats are summarized in Table and Table below.
A solution of about 500 mg/mL of the compound of Formula (Ia) having 14.06 w/w % water, 30.12 w/w % PEG 300, […] of a sodium salt of a compound of Formula (Ia), 5.00 w/w % ethanol, and 6.40 w/w % poloxamer 188 was prepared. The solution was administered subcutaneously to male beagle dogs at a dose level of about 12 mg/kg and male Wistar Han rats at a dose level of about 50 mg/kg. The pharmacokinetic profiles were determined, and the results for dogs are summarized in Table and Table, while the results for rats are summarized in Table and Table below.
A solution of about 300 mg/mL of the compound of Formula (Ia) having 23.33 w/w % water, 48.99 w/w % PEG 300, 26.47 w/w % of a sodium salt of a compound of Formula (Ia), and 1.21 w/w % poloxamer 188 was prepared. The solution was administered subcutaneously to male beagle dogs at a dose level of about 6 mg/kg and male Wistar Han rats at a dose level of about 50 mg/kg. The pharmacokinetic profiles were determined, and the results for dogs are summarized in Table and Table, while the results for rats are summarized in Table and Table below.
A solution of about 400 mg/mL of the compound of Formula (Ia) having 18.80 w/w % water, 40.25 w/w % PEG 300, 34.38 w/w % of a sodium salt of a compound of Formula (Ia), 5.00 w/w % ethanol, and 1.57 w/w % poloxamer 188 was prepared. The solution was administered subcutaneously to male beagle dogs at a dose level of about 12 mg/kg and male Wistar Han rats at a dose level of about 50 mg/kg. The pharmacokinetic profiles were determined, and the results for dogs are summarized in Table and Table, while the results for rats are summarized in Table and Table below.
A solution of about 500 mg/mL of the compound of Formula (Ia) having 16.29 w/w % water, 34.88 w/w % PEG 300, 41.92 w/w % of a sodium salt of a compound of Formula (Ia), 5.00 w/w % ethanol, and 1.91 w/w % poloxamer 188 was prepared. The solution was administered subcutaneously to male beagle dogs at a dose level of about 12 mg/kg and male Wistar Han rats at a dose level of about 50 mg/kg. The pharmacokinetic profiles were determined, and the results for dogs are summarized in Table and Table, while the results for rats are summarized in Table and Table below.
A solution of about 400 mg/mL of the compound of Formula (Ia) having 20.90 w/w % water, 44.72 w/w % PEG 300, and 34.38 w/w % of a sodium salt of a compound of Formula (Ia) was prepared. The solution was administered subcutaneously to male beagle dogs at a dose level of about 12 mg/kg and male Wistar Han rats at a dose level of about 50 mg/kg. The pharmacokinetic profiles were determined, and the results for dogs are summarized in Table and Table, while the results for rats are summarized in Table and Table below.
A solution of about 400 mg/mL of the compound of Formula (Ia) having 19.90 w/w % water, 42.59 w/w % PEG 300, 34.38 w/w % of a sodium salt of a compound of Formula (Ia), and 3.13 w/w % poloxamer 188 was prepared. The solution was administered subcutaneously to male beagle dogs at a dose level of about 12 mg/kg and male Wistar Han rats at a dose level of about 50 mg/kg. […]

With CC(C)(C#Cc1ccc(-c2ccc(Cl)c3c(NS(C)(=O)=O)nn(CC(F)(F)F)c23)c([C@H](Cc2cc(F)cc(F)c2)NC(=O)Cn2nc(C(F)(F)F)c3c2C(F)(F)[C@@H]2C[C@H]32)n1)S(C)(=O)=O [compound of Formula (Ia)] the Plasma concentration (0 h, SC 6 mg/kg, solution V, 300 mg/mL) was “BLQ”, the Plasma concentration (0 h, SC 12 mg/kg, solution T, 400 mg/mL) was “BLQ” and the Plasma concentration (0 h, SC 12 mg/kg, solution U, 500 mg/mL) was “BLQ”. The Plasma concentration (1.00 h, SC 6 mg/kg, solution V, 300 mg/mL) was “BLQ”, the Plasma concentration (1.00 h, SC 12 mg/kg, solution T, 400 mg/mL, 12 mg/kg) was 10.5 nM and 4.75 nM and 2.96 nM and the Plasma concentration (1.00 h, SC 12 mg/kg, solution U, 500 mg/mL, 12 mg/kg) was 4.85 nM and 2.05 nM and 9.86 nM. For the same compound, the Plasma concentration (3.00 h, SC 6 mg/kg, solution V, 300 mg/mL, 6 mg/kg) was “BLQ and 3.25 nM”, the Plasma concentration (3.00 h, SC 12 mg/kg, solution T, 400 mg/mL, 12 mg/kg) was 26.1 nM and 18.6 nM and 9.64 nM and the Plasma concentration (3.00 h, SC 12 mg/kg, solution U, 500 mg/mL, 12 mg/kg) was 22.9 nM and 7.00 nM and 36.1 nM. For the same compound, the Plasma concentration (8.00 h, SC 6 mg/kg, solution V, 300 mg/mL, 6 mg/kg) was 11.6 nM and 11.4 nM, the Plasma concentration (8.00 h, SC 12 mg/kg, solution T, 400 mg/mL, 12 mg/kg) was 84.5 nM and 50.3 nM and the Plasma concentration (8.00 h, SC 12 mg/kg, solution U, 500 mg/mL, 12 mg/kg) was 68.7 nM and 26.4 nM and 88.4 nM. For the same compound, the Plasma concentration (24.0 h, SC 6 mg/kg, solution V, 300 mg/mL, 6 mg/kg) was 25.7 nM and 22.6 nM, the Plasma concentration (24.0 h, SC 12 mg/kg, solution T, 400 mg/mL, 12 mg/kg) was 254 nM and 187 nM and the Plasma concentration (24.0 h, SC 12 mg/kg, solution U, 500 mg/mL, 12 mg/kg) was 101 nM and 92.7 nM and 207 nM. For the same compound, the Plasma concentration (48.0 h, SC 6 mg/kg, solution V, 300 mg/mL, 6 mg/kg) was 27.9 nM and 29.4 nM, the Plasma concentration (48.0 h, SC 12 mg/kg, solution T, 400 mg/mL, 12 mg/kg) was 166 nM and 380 nM and 179 nM and the Plasma concentration (48.0 h, SC 12 mg/kg, solution U, 500 mg/mL, 12 mg/kg) was 94.1 nM and 94.8 nM. For the same compound, the Plasma concentration (72.0 h, SC 6 mg/kg, solution V, 300 mg/mL, 6 mg/kg) was 29.6 nM and 31.5 nM, the Plasma concentration (72.0 h, SC 12 mg/kg, solution T, 400 mg/mL, 12 mg/kg) was 105 nM and 452 nM and 112 nM and the Plasma concentration (72.0 h, SC 12 mg/kg, solution U, 500 mg/mL, 12 mg/kg) was 62.3 nM and 64.0 nM. For the same compound, the Plasma concentration (96.0 h, SC 6 mg/kg, solution V, 300 mg/mL, 6 mg/kg) was 28.8 nM and 29.6 nM, the Plasma concentration (96.0 h, SC 12 mg/kg, solution T, 400 mg/mL, 12 mg/kg) was 89.8 nM and 523 nM and 83.8 nM and the Plasma concentration (96.0 h, SC 12 mg/kg, solution U, 500 mg/mL, 12 mg/kg) was 45.7 nM and 62.6 nM. The Plasma concentration (168 h, SC 6 mg/kg, solution V, 300 mg/mL, 6 mg/kg) was 34.5 nM and 41.4 nM, the Plasma concentration (168 h, SC 12 mg/kg, solution T, 400 mg/mL, 12 mg/kg) was 105 nM and 408 nM and 151 nM and the Plasma concentration (168 h, SC 12 mg/kg, solution U, 500 mg/mL, 12 mg/kg) was 55.9 nM and 49.6 nM and 187 nM. For the same compound, the Plasma concentration (336 h, SC 12 mg/kg, solution T, 400 mg/mL, 12 mg/kg) was 353 nM and 250 nM, the Plasma concentration (336 h, SC 12 mg/kg, solution U, 500 mg/mL, 12 mg/kg) was 155 nM and 187 nM and the Plasma concentration (504 h, SC 12 mg/kg, solution T, 400 mg/mL, 12 mg/kg) was 229 nM and 199 nM. For the same compound, the Plasma concentration (504 h, SC 12 mg/kg, solution U, 500 mg/mL, 12 mg/kg) was 166 nM and 129 nM, the Plasma concentration (672 h, SC 12 mg/kg, solution T, 400 mg/mL, 12 mg/kg) was 106 nM and 90.6 nM and the Plasma concentration (672 h, SC 12 mg/kg, solution U, 500 mg/mL, 12 mg/kg) was 106 nM and 101 nM and 38.7 nM. For the same compound, the Plasma concentration (840 h, SC 12 mg/kg, solution T, 400 mg/mL, 12 mg/kg) was 139 nM and 69.8 nM and 63.7 nM, the Plasma concentration (840 h, SC 12 mg/kg, solution U, 500 mg/mL, 12 mg/kg) was 107 nM and 69.7 nM and 41.2 nM and the Plasma concentration (1008 h, SC 12 mg/kg, solution T, 400 mg/mL, 12 mg/kg) was 71.1 nM and 74.2 nM. For the same compound, the Plasma concentration (1008 h, SC 12 mg/kg, solution U, 500 mg/mL, 12 mg/kg) was 83.5 nM and 61.1 nM and 30.4 nM, the Plasma concentration (1344 h, SC 12 mg/kg, solution T, 400 mg/mL, 12 mg/kg) was 35.6 nM and 30.6 nM and the Plasma concentration (1344 h, SC 12 mg/kg, solution U, 500 mg/mL, 12 mg/kg) was 38.5 nM and 22.5 nM. For the same compound, the Plasma concentration (1680 h, SC 12 mg/kg, solution T, 400 mg/mL, 12 mg/kg) was 34.6 nM and 17.3 nM, the Plasma concentration (1680 h, SC 12 mg/kg, solution U, 500 mg/mL, 12 mg/kg) was 25.7 nM and 27.7 nM and 10.5 nM and the Plasma concentration (2016 h, SC 12 mg/kg, solution T, 400 mg/mL, 12 mg/kg) was 7.9 nM (2×) and 19.6 nM. For the same compound, the Plasma concentration (2016 h, SC 12 mg/kg, solution U, 500 mg/mL, 12 mg/kg) was 10.7 nM and 13.8 nM and 6.40 nM, the Plasma concentration (2352 h, SC 12 mg/kg, solution T, 400 mg/mL, 12 mg/kg) was 7.6 nM and 5.7 nM and the Plasma concentration (2352 h, SC 12 mg/kg, solution U, 500 mg/mL, 12 mg/kg) was 8.8 nM and 10.2 nM and 3.45 nM. The Plasma concentration (3696 h, SC 6 mg/kg, solution V, 300 mg/mL) was “BLQ” and the Plasma concentration (4032 h, SC 6 mg/kg, solution V, 300 mg/mL) was “BLQ”.

From patent US11807625B2, “Capsid inhibitors for the prevention of HIV” (Gilead Sciences, Inc., priority 2019, dated 2023)
